The record followed here is PubChem BioAssay AID463074 (Broad Institute, 2010).

The source made the active and inactive calls.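 How the source made its calls: active means AC50 no more than tenfold above the top dose tested, or full inhibition at every dose with a flat fit (cut at about 19 µM in these data); inconclusive means flat curve fit with inhibition between 30% and 70%, or poor fit; inactive means AC50 more than tenfold above the top dose tested.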 Some results are limits rather than exact numbers.

For orientation: AC50 means the concentration at which the activity in the assay is half-maximal.

For the test, the system named is HMLE_sh_eGFP viability, CellTiter-Glo luminescence, 72 h. The experiment in a line: viability loss of HMLE_sh_eGFP cells – cell-based, luminescence, counter-screen for HMLE_sh_ECad selective toxicity project, dose response (AID 463074;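 further: counterscreen control line to flag general toxicity for the HMLE_sh_ECad screen; potency for loss of viability as luminescence drops below DMSO wells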). (A counterscreen serves to expose hits that act by an unwanted route or on another target.)
In the case of `CCCCCCC(C)(C)c1ccc([C@@H]2C[C@H](O)CC[C@H]2CCCO)c(O)c1`, the concentration at half-maximal activity (AC50) was 3.5 µM.

For `CCCCN(CCCC)CCC(O)c1cc2c(Cl)cc(Cl)cc2c2cc(C(F)(F)F)ccc12` (stereo not drawn), the concentration at half-maximal activity (AC50) is 7.54 µM.

`CCCCC(CC)CN1C(=O)/C(=C/c2ccncc2)SC1=S` (stereo not drawn): the half-maximal activity concentration (AC50) was 6.81 µM.

For `Cc1cc2c(cc1C)CSC(c1c(O)ccc3ccccc13)SC2`, the AC50 was 3.12 µM.

Regarding `O=C(N/N=C/c1c[nH]c2ccccc12)C1CC1(c1ccccc1)c1ccccc1` (stereo not drawn), the AC50 is 7.04 µM.

`CC(=O)Oc1ccc(-c2csc(Nc3ccc(Cl)cn3)n2)cc1`: the AC50 was 4.6 µM.

As for `CC(C)(C)[C@@H]1CCC(=O)N(CC[C@H](Sc2ccc(Br)cc2)c2ccccc2)CC1`, the AC50 is 3.38 µM.

In the case of `Cn1nc(C(F)(F)F)c(C(=O)Nc2cccc(C(F)(F)F)c2)c1SCc1ccc(Cl)cc1`, the AC50 is 7.09 µM.

As for `CC(C)n1cnc2c(NCc3ccccc3)cc(N[C@H](C)CO)cc21`, the concentration at half-maximal activity (AC50) was 7.36 µM.

Regarding `CCc1c(C2(O)CCCCC2)[nH]c2c(C(=O)OC)cc(Cl)cc12`, the concentration at half-maximal activity (AC50) was 2.69 µM.

With `CCC1C=CC=CC[C@H](C)[C@@H](O)[C@](C)(O)C(=O)[C@@H](C)[C@H](O)[C@@H](C)C(=O)[C@H](C)[C@@H](O)[C@H](C)C=CC(=O)OC2[C@@H](C)C(CC1)OC1(CC[C@@H](C)C(C[C@H](C)O)O1)[C@@H]2C` (stereo partly drawn), the half-maximal activity concentration (AC50) is 3.2 µM.

In the case of `O=C(Nc1ncc(S(=O)(=O)c2ccc([N+](=O)[O-])cc2)s1)c1ccc2ccccc2c1`, the concentration at half-maximal activity (AC50) is 3.61 µM.

Regarding `Cc1cc(S(=O)(=O)c2ccc([N+](=O)[O-])cn2)ccc1Br`, the AC50 is 3.99 µM.

For the compound `CN1CCN(/N=C/c2ccc(N(c3ccccc3)c3ccccc3)cc2)CC1`, the AC50 is 6.89 µM.

With `CCC1=Nc2cc(C(=O)NCc3cccnc3)ccc2Sc2ccc(C)cc21`, the AC50 was 0.816 µM.

On to `Cc1ccc(NC(=S)Nc2ccc(C(C)C)cc2)cc1S(=O)(=O)N1CCCCCC1`, for which the AC50 was 3.82 µM.

With `O=C(Nc1cccc(-c2csc(Nc3ccc(Cl)cc3)n2)c1)c1cc([N+](=O)[O-])cc(C(F)(F)F)c1`, the half-maximal activity concentration (AC50) was 6.88 µM.

For the compound `C#CCOCCOCCOCCNc1nc(N2CCN(C(=O)CCCCCCCCCCNC(=O)Cn3cc(C[C@@H](C)O)nn3)CC2)nc(N2CCN(C(=O)CCCCCCCCCCNC(=O)[C@@H]([C@H](C)O)n3cc(C)nn3)CC2)n1`, the AC50 is 4.83 µM.

For the compound `CCCOC(=O)C(=O)NNc1ccccc1`, the half-maximal activity concentration (AC50) is 1.81 µM.

On to `CC[C@H](CO)Nc1nc(Nc2cccc(Cl)c2)c2ncn(C(C)C)c2n1`, for which the AC50 is 6.74 µM.

In the case of `CNC(=O)c1c(NC(=O)c2ccc(S(=O)(=O)N3CCCc4ccccc43)cc2)sc2c1CCN(C)C2`, the AC50 is 0.987 µM.

For the compound `Cc1nn(Cc2ccccc2)c(C)c1C(=O)OCC(=O)c1cc(C)n(CC(F)(F)F)c1C`, the concentration at half-maximal activity (AC50) was 14 µM.

Turning to `CC1(C)CC[C@@]2(C(=O)O)C(C1)C1=CCC3[C@@]4(C)CC[C@H](O)C(C)(C)C4CC[C@@]3(C)[C@]1(C)C[C@H]2O` (stereo partly drawn), the AC50 is 7.84 µM.

Consider `Cc1cc(C(C)(C)C)ccc1OCCCCN1CCCC1`, for which the AC50 was 4.22 µM.

For the compound `CN(C(=S)Nc1ccc(SC(F)F)cc1)C(c1ccccc1)c1ccccc1`, the concentration at half-maximal activity (AC50) was 5.58 µM.

With `COc1ccc(-c2[nH]ncc2N=Nc2ccccc2)cc1`, the half-maximal activity concentration (AC50) is 7.66 µM.

Regarding `Cc1cccc(-n2cc(CN(C)Cc3nccn3C)c(-c3cccc(F)c3)n2)c1`, the half-maximal activity concentration (AC50) is 15.5 µM.

Turning to `O=C(c1cccc(S(=O)(=O)N2CCc3ccccc3C2)c1)N1CCN(c2ccc(O)cc2)CC1`, the half-maximal activity concentration (AC50) was 2.9 µM.

Turning to `CCOC(=O)C1=C(c2ccccc2)N=c2s/c(=C\c3cccc(O)c3)c(=O)n2C1c1cccs1` (stereo not drawn), the AC50 is 3.39 µM.

Consider `CCOC(=O)/C(=C\c1ccc(Cl)cc1)c1nc2sc(C)c(C)c2c(=O)[nH]1`, for which the half-maximal activity concentration (AC50) is 1.54 µM.

Turning to `Cc1ccc(S(=O)(=O)Nc2ccc(C(OC(=O)c3ccccc3[N+](=O)[O-])(C(F)(F)F)C(F)(F)F)cc2)cc1`, the AC50 is 7.19 µM.

For the compound `COc1cccc(/C=C/c2ccc3ccccc3n2)c1OC(C)=O`, the concentration at half-maximal activity (AC50) is 11.7 µM.

Turning to `Cn1nc(-c2ccccc2F)c2cc(C(=O)Nc3ccc4c(c3)OCCO4)sc21`, the AC50 was > 19.5 µM (inactive).
